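Tested at 5 concentrations; 48 h exposure; 96-well plates; endpoints linearly interpolated, else capped at highest concentration. At the GI50, growth is halved. TGI marks complete inhibition of growth.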
What was measured:
Test in all cases: inhibition of tumour cell growth, NCI panel, 48 h
M14 melanoma = test system: M14 melanoma
MALME-3M melanoma = test system: MALME-3M melanoma
MOLT-4 leukemia = test system: MOLT-4 leukemia
NCI/ADR-RES ovarian = test system: NCI/ADR-RES ovarian
OVCAR-5 ovarian = test system: OVCAR-5 ovarian
ACHN renal = test system: ACHN renal
MDA-MB-435 = test system: MDA-MB-435
K-562 leukemia = test system: K-562 leukemia
HT29 colon = test system: HT29 colon
NCI-H522 lung = test system: NCI-H522 lung
SF-539 CNS = test system: SF-539 CNS
LOX IMVI melanoma = test system: LOX IMVI melanoma
NCI-H460 lung = test system: NCI-H460 lung
SK-MEL-28 melanoma = test system: SK-MEL-28 melanoma
NCI-H226 lung = test system: NCI-H226 lung
HOP-62 NSCLC = test system: HOP-62 NSCLC
SR leukemia = test system: SR leukemia
HCT-116 colon = test system: HCT-116 colon
A498 renal = test system: A498 renal
SF-295 CNS = test system: SF-295 CNS
DU-145 prostate = test system: DU-145 prostate
UACC-62 melanoma = test system: UACC-62 melanoma
MDA-MB-231 breast = test system: MDA-MB-231 breast
UO-31 renal = test system: UO-31 renal
SF-268 CNS = test system: SF-268 CNS
UACC-257 melanoma = test system: UACC-257 melanoma
SNB-19 CNS = test system: SNB-19 CNS
COLO 205 colon = test system: COLO 205 colon
NCI-H23 lung = test system: NCI-H23 lung
HCT-15 colon = test system: HCT-15 colon
IGROV1 ovarian = test system: IGROV1 ovarian
OVCAR-4 ovarian = test system: OVCAR-4 ovarian
EKVX NSCLC = test system: EKVX NSCLC
SK-OV-3 ovarian = test system: SK-OV-3 ovarian
SW-620 colon = test system: SW-620 colon
A549 NSCLC = test system: A549 NSCLC
KM12 colon = test system: KM12 colon
CCRF-CEM leukemia = test system: CCRF-CEM leukemia
SK-MEL-5 melanoma = test system: SK-MEL-5 melanoma
RPMI-8226 leukemia = test system: RPMI-8226 leukemia
MCF7 breast = test system: MCF7 breast
HCC-2998 colon = test system: HCC-2998 colon
HS 578T breast = test system: HS 578T breast
SK-MEL-2 melanoma = test system: SK-MEL-2 melanoma
OVCAR-3 ovarian = test system: OVCAR-3 ovarian
T-47D breast = test system: T-47D breast
SNB-75 CNS = test system: SNB-75 CNS
U251 CNS = test system: U251 CNS
TK-10 renal = test system: TK-10 renal
RXF 393 renal = test system: RXF 393 renal
HL-60(TB) leukemia = test system: HL-60(TB) leukemia
BT-549 breast = test system: BT-549 breast
CAKI-1 renal = test system: CAKI-1 renal
OVCAR-8 ovarian = test system: OVCAR-8 ovarian
PC-3 prostate = test system: PC-3 prostate
786-0 renal = test system: 786-0 renal
HOP-92 NSCLC = test system: HOP-92 NSCLC
SN12C renal = test system: SN12C renal

COc1ccccc1/C=C/C(=O)c1ccc(Nc2nc(Nc3ccc(F)cc3)nc(Nc3ccc(F)cc3)n2)cc1
GI50 (M14 melanoma): 25.5 µM | TGI (M14 melanoma): 86.7 µM | GI50 (MALME-3M melanoma): 20.1 µM | TGI (MALME-3M melanoma): 46.5 µM | GI50 (MOLT-4 leukemia): 6.13 µM | TGI (MOLT-4 leukemia): 97.8 µM | GI50 (NCI/ADR-RES ovarian): 13 µM | TGI (NCI/ADR-RES ovarian): > 100 µM | GI50 (OVCAR-5 ovarian): 51.9 µM | TGI (OVCAR-5 ovarian): > 100 µM | GI50 (ACHN renal): 25.2 µM | TGI (ACHN renal): > 100 µM | GI50 (MDA-MB-435): 19.4 µM | TGI (MDA-MB-435): 90.7 µM | GI50 (K-562 leukemia): 9.94 µM | TGI (K-562 leukemia): > 100 µM | GI50 (HT29 colon): 15.8 µM | TGI (HT29 colon): > 100 µM | GI50 (NCI-H522 lung): 23 µM | TGI (NCI-H522 lung): > 100 µM | GI50 (SF-539 CNS): 1.73 µM | TGI (SF-539 CNS): 17.6 µM | GI50 (LOX IMVI melanoma): 21.1 µM | TGI (LOX IMVI melanoma): > 100 µM | GI50 (NCI-H460 lung): 9.38 µM | TGI (NCI-H460 lung): > 100 µM | GI50 (SK-MEL-28 melanoma): 33.6 µM | TGI (SK-MEL-28 melanoma): > 100 µM | GI50 (NCI-H226 lung): 6.61 µM | TGI (NCI-H226 lung): > 100 µM | GI50 (HOP-62 NSCLC): 16.3 µM | TGI (HOP-62 NSCLC): 77.6 µM | GI50 (SR leukemia): 4.34 µM | TGI (SR leukemia): > 100 µM | GI50 (HCT-116 colon): 4.58 µM | TGI (HCT-116 colon): > 100 µM | GI50 (A498 renal): 13.3 µM | TGI (A498 renal): 47.2 µM | GI50 (SF-295 CNS): 14.4 µM | TGI (SF-295 CNS): 98.5 µM | GI50 (DU-145 prostate): 55.9 µM | TGI (DU-145 prostate): > 100 µM | GI50 (UACC-62 melanoma): 55.5 µM | TGI (UACC-62 melanoma): > 100 µM | GI50 (MDA-MB-231 breast): 25.8 µM | TGI (MDA-MB-231 breast): > 100 µM | GI50 (UO-31 renal): 9.52 µM | TGI (UO-31 renal): > 100 µM | GI50 (SF-268 CNS): 45.7 µM | TGI (SF-268 CNS): > 100 µM | GI50 (UACC-257 melanoma): 22 µM | TGI (UACC-257 melanoma): 66.6 µM | GI50 (SNB-19 CNS): 74.2 µM | TGI (SNB-19 CNS): > 100 µM | GI50 (COLO 205 colon): 2.55 µM | TGI (COLO 205 colon): 55.1 µM | GI50 (NCI-H23 lung): 18.9 µM | TGI (NCI-H23 lung): > 100 µM | GI50 (HCT-15 colon): 6.57 µM | TGI (HCT-15 colon): > 100 µM | GI50 (IGROV1 ovarian): 22.6 µM | TGI (IGROV1 ovarian): > 100 µM | GI50 (OVCAR-4 ovarian): 65.3 µM | TGI (OVCAR-4 ovarian): > 100 µM | GI50 (EKVX NSCLC): 38.1 µM | TGI (EKVX NSCLC): > 100 µM | GI50 (SK-OV-3 ovarian): 69.7 µM | TGI (SK-OV-3 ovarian): > 100 µM | GI50 (SW-620 colon): 6.49 µM | TGI (SW-620 colon): > 100 µM | GI50 (A549 NSCLC): 10.9 µM | TGI (A549 NSCLC): > 100 µM | GI50 (KM12 colon): 7.67 µM | TGI (KM12 colon): > 100 µM | GI50 (CCRF-CEM leukemia): 5.6 µM | TGI (CCRF-CEM leukemia): > 100 µM | GI50 (SK-MEL-5 melanoma): 10.5 µM | TGI (SK-MEL-5 melanoma): 40 µM | GI50 (RPMI-8226 leukemia): 3.03 µM | TGI (RPMI-8226 leukemia): 16.3 µM | GI50 (MCF7 breast): 5.45 µM | TGI (MCF7 breast): > 100 µM | GI50 (HCC-2998 colon): 25.2 µM | TGI (HCC-2998 colon): > 100 µM | GI50 (HS 578T breast): 8.29 µM | TGI (HS 578T breast): 71.1 µM | GI50 (SK-MEL-2 melanoma): 25.2 µM | TGI (SK-MEL-2 melanoma): > 100 µM | GI50 (OVCAR-3 ovarian): 22.2 µM | TGI (OVCAR-3 ovarian): > 100 µM | GI50 (T-47D breast): 8.01 µM | TGI (T-47D breast): > 100 µM | GI50 (SNB-75 CNS): 50.6 µM | TGI (SNB-75 CNS): > 100 µM | GI50 (U251 CNS): 9.8 µM | TGI (U251 CNS): > 100 µM | GI50 (TK-10 renal): 48.6 µM | TGI (TK-10 renal): > 100 µM | GI50 (RXF 393 renal): 2.49 µM | TGI (RXF 393 renal): 9.37 µM | GI50 (HL-60(TB) leukemia): 3.77 µM | TGI (HL-60(TB) leukemia): > 100 µM | GI50 (BT-549 breast): 13.5 µM | TGI (BT-549 breast): > 100 µM | GI50 (CAKI-1 renal): > 100 µM | TGI (CAKI-1 renal): > 100 µM | GI50 (OVCAR-8 ovarian): 9.4 µM | TGI (OVCAR-8 ovarian): > 100 µM | GI50 (PC-3 prostate): 5.49 µM | TGI (PC-3 prostate): > 100 µM | GI50 (786-0 renal): 2.85 µM | TGI (786-0 renal): 14.9 µM | GI50 (HOP-92 NSCLC): 7.24 µM | TGI (HOP-92 NSCLC): 46.5 µM | GI50 (SN12C renal): 51.2 µM | TGI (SN12C renal): > 100 µM
